From patent publication US11008572B2, “Methods and compositions for modulating splicing” (SKYHAWK THERAPEUTICS, INC., priority 2017, dated 2021)
Where two headings read alike, the source gives them in different places.

How the values were obtained:
Type in all cases: cell-based
IKBKAP^Δ20 mRNA = test: IKBKAP splicing assay, qPCR; conditions: 24 hours of incubation
Protocol: (§1) Various cells lines were treated with the SMSMs described herein. RNA was then isolated, cDNA synthesized, qPCR performed and the levels of IKBKAP targets of the SMSMs were determined.
(§2) On the day of the experiment, a 96-well plate was seeded with the cell lines of interest. The cells were diluted with full growth media to a concentration of 2.0×10^5 cells/mL and 100 μL of cells were added to each well (20,000 cells per well). The cells were treated with a compound immediately after plating.
(§3) The compounds were then added to the cell plate using the HP compound dispenser. In the initial experiment, a top concentration of 10 μM and an 8 point 4-fold dilution scheme was used. The stock compounds were made at a concentration of 5 mM, and the DMSO concentration was set to 0.2%. DMSO was used to normalize all the compound-containing wells and the untreated cells.
(§4) The treated cells were incubated at 37° C. in a 5% CO2 incubator for the desired amount of time. Plates were placed in a plastic bag with a wet paper towel to prevent evaporation.
(§5) RNA was isolated using the Cells to CT kit (ThermoFisher, AM1728). The cells were washed once with 100 μL cold PBS. 50 μL of lysis buffer was added to each well/tube (49.5 μL lysis buffer+0.5 μL DNase I per well/tube). The lysis reaction was mixed and incubated at room temperature for 5 minutes. 5 μL of stop solution was added directly into each cell lysis reaction and mixed by pipetting up and down 5 times. The plates/tubes were incubated at room temperature for 2 minutes then placed on ice if the cDNA synthesis was to be performed immediately. Otherwise, the plates/tubes were stored at −80° C.
(§6) cDNA synthesis reactions were then performed. 40 μL RT master mix was added to PCR tubes or plate wells. 10 μL of RNA was added to each tube/well. The RT thermal cycler program was then run and tubes or plate wells were incubated at 37° C. for 1 hour, then at 95° C. for 5 minutes to deactivate the enzyme.
(§7) The qPCR was performed using a QuantStudio 6 instrument (ThermoFisher) and the following cycling conditions and according to the tables below. All samples and standards were analyzed in triplicate. Cycle 1: 2 minutes at 50° C. Cycle 2: 10 minutes at 95° C. Cycle 3 (repeat 40 times): 15 seconds at 95° C., 1 minute at 60° C.
(§8) The determined IKBKAP^FL and […] isoform quantities were then used to determine the IKBKAP^FL: IKBKAP^Δ20 ratio at increasing SMSM compound concentrations. The PPIA quantities were used in the normalization to account of cell proliferation effects of the compounds.
(§9) An assay to measure the IKBKAP^FL mRNA and IKBKAP^Δ20 mRNA simultaneously in cell wells was performed. The RNA values were measured relative to DMSO control and also included a housekeeping gene, PPIA to ensure data was consistent. The mRNA values were measured after 24 hours of incubation with the SMSM compounds.

IKBKAP^FL mRNA = test: IKBKAP splicing assay, qPCR; conditions: 24 hours of incubation
Protocol: as §1, §2, §3, §4, §5, §6, §7, §8, §9

[1] = test system: FOXM1^A2 mRNA and FOXM1^BC mRNA; test: Splicing assay (FOXM1), qPCR of isoform mRNAs
Procedure, shortened: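 Cells (20,000/well) treated at plating with compound, 8-point 4-fold series from 10 μM, 0.2% DMSO, 24 h at 37° C. Isoform mRNAs quantified by RT-qPCR against plasmid standards, normalized to PPIA and DMSO control; isoform ratio computed per concentration.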

A-673 cells = test: Cell viability, crystal violet staining; conditions: Homo sapiens, A673, cell viability
Procedure, shortened: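 Readout is absorbance at 570 nm of crystal violet, taken up in 0.1 M sodium citrate in 50% ethanol after staining with 0.5% dye in 25% methanol. Plates held 5×10^3 cells per well, and compounds were added one day after seeding for 72 hours. Data are relative to vehicle, mean±SE.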

[2] = 24 h, FoxM1 BC mRNA decrease (exon included), 0.1-1000 nM, 24 hours, read-out: Splice IC50 (nM), FoxM1 BC mRNA decrease (exon included)
[3] = FoxM1 A mRNA increase (exon excluded), 0.1-1000 nM, 24 hours, read-out: Splice EC50 (nM), FoxM1 A mRNA increase (exon excluded)
[4] = read-out: A-673 IC50 (nM), Cell viability
[5] = read-out: A-673 IC50 (nM) Cell viability
[6] = FoxM1 BC mRNA decrease (exon included), read-out: Splice IC50 (nM) FoxM1 BC mRNA decrease (exon included)
[7] = read-out: Splice EC50 (nM) FoxM1 A mRNA increase (exon excluded)

| SMILES | IC50 (IKBKAP^Δ20 mRNA) [nM] | EC50 (IKBKAP^FL mRNA) [nM] | IC50 [1, 2] [nM] | EC50 [1, 3] [nM] | IC50 (A-673 cells; [4]) [nM] | further results |
| --- | --- | --- | --- | --- | --- | --- |
| CN(c1ccc(-c2ccc(-c3cn[nH]c3)cc2O)nn1)C1[C@H]2CN(C(=O)CCN)C[C@@H]12 (stereo partly drawn) [compound 315, 3-amino-1-((1R,5S)-6-((6-(2-hydroxy-4-(1H-pyrazol-4-yl)phenyl)pyridazin-3-yl)(methyl)amino)-3-azabicyclo[3.1.0]hexan-3-yl)propan-1-one] | > 1000 | > 1000 |  |  |  |  |
| CN(c1ccc(-c2ccc(-n3ccnc3)cc2O)nn1)[C@@H]1C[C@H]2CC[C@@H](C1)N2 [compound 217, 2-(6-(((1R,3s,5S)-8-azabicyclo[3.2.1]octan-3-yl)(methyl)amino)pyridazin-3-yl)-5-(1H-imidazol-1-yl)phenol] | 201 to 1000 | 351 to 1000 | 10 to 100 | < 10 | 10 to 100 |  |
| Oc1cc(-c2cn[nH]c2)c(F)cc1-c1ccc(O[C@@H]2C[C@H]3CCC[C@@H](C2)N3)nn1 [compound 278, 2-(6-(((1R,3s,5S)-9-azabicyclo[3.3.1]nonan-3-yl)oxy)pyridazin-3-yl)-4-fluoro-5-(1H-pyrazol-4-yl)phenol] | < 200 | 101 to 350 |  |  | 10 to 100 |  |
| CN(c1ccc(-c2cc3cccnc3cc2O)nn1)[C@@H]1C[C@H]2CC[C@@H](C1)N2 [compound 162, 6-(6-(((1R,3s,5S)-8-azabicyclo[3.2.1]octan-3-yl)(methyl)amino)pyridazin-3-yl)quinolin-7-ol] | 201 to 1000 |  |  |  |  | IC50 (A-673 cells; [5]): 251 to 500 nM |
| Cc1cn(-c2ccc(-c3ccc(N(C)[C@@H]4C[C@H]5CC[C@@H](C4)N5)nn3)c(O)c2)cn1 [compound 218, 2-(6-(((1R,3s,5S)-8-azabicyclo[3.2.1]octan-3-yl)(methyl)amino)pyridazin-3-yl)-5-(4-methyl-1H-imidazol-1-yl)phenol] | > 1000 | 351 to 1000 | < 10 | < 10 | 10 to 100 |  |
| CN(c1ccc(-c2ccc(-c3cnn(C)c(=O)c3)cc2O)nn1)[C@@H]1C[C@H]2CC[C@@H](C1)N2 [compound 238, 5-(4-(6-(((1R,3s,5S)-8-azabicyclo[3.2.1]octan-3-yl)(methyl)amino)pyridazin-3-yl)-3-hydroxyphenyl)-2-methylpyridazin-3(2H)-one] | 201 to 1000 | 101 to 350 | 10 to 100 | < 10 | 10 to 100 |  |
| CN(c1ccc(-c2ccc(-n3nccn3)cc2O)nn1)[C@@H]1C[C@H]2CC[C@@H](C1)N2 [compound 223, 2-(6-(((1R,3s,5S)-8-azabicyclo[3.2.1]octan-3-yl)(methyl)amino)pyridazin-3-yl)-5-(2H-1,2,3-triazol-2-yl)phenol] | > 1000 | 101 to 350 | < 10 | < 10 | 10 to 100 | IC50 ([1]; Homo sapiens, A-375, 24 h, A-375 cells, 24 hours, table does not say EC50 or IC50, read-out: FOXM1): 11 to 100 nM; IC50 ([1]; Homo sapiens, BXPC-3, 24 h, BxPC-3 cells, 24 hours, table does not say EC50 or IC50, read-out: FOXM1): 200 to 500 nM; IC50 ([1]; Homo sapiens, DU-145, 24 h, DU-145 cells, 24 hours, table does not say EC50 or IC50, read-out: FOXM1): 200 to 500 nM; IC50 ([1]; Homo sapiens, Daoy, 24 h, Daoy cells, 24 hours, table does not say EC50 or IC50, read-out: FOXM1): 101 to 200 nM; IC50 ([1]; Homo sapiens, G-401, 24 h, G-401 cells, 24 hours, table does not say EC50 or IC50, read-out: FOXM1): 11 to 100 nM; IC50 ([1]; Homo sapiens, SH-SY5Y, 24 h, SH-SY5Y cells, 24 hours, table does not say EC50 or IC50, read-out: FOXM1): 11 to 100 nM; IC50 ([1]; Homo sapiens, TT, 24 h, T.T cells, 24 hours, table does not say EC50 or IC50, read-out: FOXM1): 101 to 200 nM |
| [2H]C([2H])([2H])n1ncc(-c2ccc(-c3ccc(N(C)[C@@H]4C[C@H]5CC[C@@H](C4)N5)nn3)c(O)c2)cc1=O [compound 282, 5-(4-(6-(((1R,3s,5S)-8-azabicyclo[3.2.1]octan-3-yl)(methyl)amino)pyridazin-3-yl)-3-hydroxyphenyl)-2-(methyl-d3)pyridazin-3(2H)-one] | 201 to 1000 | 101 to 350 | 10 to 100 | < 10 | 10 to 100 |  |
| CN(c1ccc(-c2ccc(-c3cn[nH]c3)cc2O)nn1)[C@@H]1C[C@H]2COC[C@@H](C1)N2 [compound 154, 2-(6-(((1R,5S,7r)-3-oxa-9-azabicyclo[3.3.1]nonan-7-yl)(methyl)amino)pyridazin-3-yl)-5-(1H-pyrazol-4-yl)phenol] |  | 351 to 1000 |  |  |  | IC50 [1, 6]: 10 to 100 nM; EC50 [1, 7]: 10 to 100 nM; IC50 (A-673 cells; [5]): 10 to 100 nM |
| CN(c1ccc(-c2ccc(-c3cc(=O)n(C)cn3)cc2O)nn1)[C@H]1C[C@]2(C)CCC[C@](C)(C1)N2 [compound 266, 6-(4-(6-(((1R,3s,5S)-1,5-dimethyl-9-azabicyclo[3.3.1]nonan-3-yl)(methyl)amino)pyridazin-3-yl)-3-hydroxyphenyl)-3-methylpyrimidin-4(3H)-one] | < 200 | < 100 |  |  | 10 to 100 |  |
| Cc1ncc(-c2ccc(-c3ccc(N(C)[C@@H]4C[C@H]5CC[C@@H](C4)N5)nn3)c(O)c2)o1 [compound 228, 2-(6-(((1R,3s,5S)-8-azabicyclo[3.2.1]octan-3-yl)(methyl)amino)pyridazin-3-yl)-5-(2-methyloxazol-5-yl)phenol] | > 1000 | 351 to 1000 | 10 to 100 | < 10 | 10 to 100 |  |
| Cc1nnc(-c2ccc(-c3ccc(N(C)[C@@H]4C[C@H]5CC[C@@H](C4)N5)nn3)c(O)c2)o1 [compound 219, 2-(6-(((1R,3s,5S)-8-azabicyclo[3.2.1]octan-3-yl)(methyl)amino)pyridazin-3-yl)-5-(5-methyl-1,3,4-oxadiazol-2-yl)phenol] |  |  | 10 to 100 | 10 to 100 | > 1000 |  |
| Oc1cc(-c2nnn[nH]2)ccc1-c1ccc(O[C@@H]2C[C@H]3CC[C@@H](C2)N3)nn1 [compound 254, 2-(6-(((1R,3s,5S)-8-azabicyclo[3.2.1]octan-3-yl)oxy)pyridazin-3-yl)-5-(1H-tetrazol-5-yl)phenol] |  |  | > 1000 | > 1000 | > 1000 |  |
| CN(c1ccc(-c2ccc(-c3ccc(=O)n(C)c3)cc2O)nn1)[C@@H]1C[C@H]2CC[C@@H](C1)N2 [compound 241, 5-(4-(6-(((1R,3s,5S)-8-azabicyclo[3.2.1]octan-3-yl)(methyl)amino)pyridazin-3-yl)-3-hydroxyphenyl)-1-methylpyridin-2(1H)-one] |  |  | 10 to 100 | < 10 | 101 to 250 |  |
| Cc1cn(-c2ccc(-c3ccc(N(C)[C@@H]4C[C@H]5CC[C@@H](C4)N5)nn3)c(O)c2)c(C)n1 [compound 231, 2-(6-(((1R,3s,5S)-8-azabicyclo[3.2.1]octan-3-yl)(methyl)amino)pyridazin-3-yl)-5-(2,4-dimethyl-1H-imidazol-1-yl)phenol] |  |  | 501 to 1000 | 251 to 500 | > 1000 |  |
| CNC(=O)c1cc2cc(-c3ccc(N(C)[C@H]4C[C@]5(C)CC[C@](C)(C4)N5)nn3)c(O)cc2o1 [compound 192, 5-(6-(((1R,3s,5S)-1,5-dimethyl-8-azabicyclo[3.2.1]octan-3-yl)(methyl)amino)pyridazin-3-yl)-6-hydroxy-N-methylbenzofuran-2-carboxamide] |  |  |  |  |  | IC50 [1, 6]: < 10 nM; EC50 [1, 7]: < 10 nM; IC50 (A-673 cells; [5]): 10 to 100 nM |
